Results from patent US20230063449A1, “DRG-MDM2-5 FOR USE AS A NOVEL MOUSE DOUBLE MINUTE 2 (MDM2) INHIBITOR” (BAHCESEHIR UNIVERSITESI, priority 2020, published 2023).

Key:
MDA-MB231 cell lines = assay: MTT cell viability assay (IC50); format: cell-based; conditions: Homo sapiens, MDA-MB-231, single dose of treatment, 10^−9 to 10^−4 M, 570 nm absorbance (FIG. 1), read-out: half-maximal inhibitory concentration (IC50)
Description: (§1) HCT 116 colon cancer and MDA-MB231 breast cancer cell lines are used in cell culture experiments.
Cells were treated with high-glucose DMEM medium (Biosera) supplemented with 10% FBS (Gibco) and 1× penicillin/streptomycin (Multicell). The assay was designed to contain 10,000 cells for each well of 24-well cell culture plates before being treated with inhibitors.
Compound of formula I was dissolved with DMSO as 20 mM stock. 24 hours later, the solution was diluted in DMEM with 10% FBS and final concentration of vehicle DMSO was 0.5% at maximum. Therefore, the vehicle group included 0.5% DMSO concentration in experiments. Intensive cultivation of cells causes a decrease in proliferation capacity.
The MTT cell viability assay was used to detect values of half-maximal inhibitory concentration (IC50). Different concentrations of compound of formula I ranging between 10^−9 to 10^−4 M were tested on MDA-MB231 cell lines with single dose of treatment. 570 nm absorbance values were recorded and IC50 values were calculated by dose response—inhibition curves and nonlinear regression analysis on Graphpad Prism 8 software.

[1] = tested on: HCT 116 colon cancer and MDA-MB231 breast cancer cell lines; assay: MTT cell proliferation inhibition analysis; format: cell-based; conditions: 100 μM; MTT at 12 h, 24 h, 48 h and 72 h; ANOVA, p<0.001 (FIG. 2)
Description: as §1
For proliferation inhibition analysis, cells were seeded in 24 well plates at 1×10^4 cells/well cells overnight without drug treatment. During the cell proliferation experiments, we performed five days of treatment in each cell line and repeated the experiments three times to check each experiment. No significant difference in cell viability was observed after the third day. Therefore, cells with different drug concentrations were treated for two days. After 48 hours, MTT was applied to the cells and incubated at 37° C. for 4 hours, formazan was solubilized with DMSO (Sigma-Aldrich, St. Louis, USA) and absorbance was measured at 570 nm.
Molecule concentration was 100 μM, the lower concentrations were not shown. Vehicle represents the groups treated with only %0.5 DMSO and Untreated represents no molecule treated group. Molecule responses were evaluated by cell viability which is obtained by spectrophotometric analysis of cells upon MTT treatment at 12 h, 24 h, 48 h and 72 h. […] Statistical significance in graphs was determined by comparing each treatment group with DMSO control using ANOVA testing and significance is considered as p<0.001 (FIG. 2).

MDM2 protein = MDM2 protein (Homo sapiens, UniProt Q00987); conditions: compared with natural p53 peptide; cited from earlier work
Sequence of MDM2 protein (Q00987 whole entry, species assumed): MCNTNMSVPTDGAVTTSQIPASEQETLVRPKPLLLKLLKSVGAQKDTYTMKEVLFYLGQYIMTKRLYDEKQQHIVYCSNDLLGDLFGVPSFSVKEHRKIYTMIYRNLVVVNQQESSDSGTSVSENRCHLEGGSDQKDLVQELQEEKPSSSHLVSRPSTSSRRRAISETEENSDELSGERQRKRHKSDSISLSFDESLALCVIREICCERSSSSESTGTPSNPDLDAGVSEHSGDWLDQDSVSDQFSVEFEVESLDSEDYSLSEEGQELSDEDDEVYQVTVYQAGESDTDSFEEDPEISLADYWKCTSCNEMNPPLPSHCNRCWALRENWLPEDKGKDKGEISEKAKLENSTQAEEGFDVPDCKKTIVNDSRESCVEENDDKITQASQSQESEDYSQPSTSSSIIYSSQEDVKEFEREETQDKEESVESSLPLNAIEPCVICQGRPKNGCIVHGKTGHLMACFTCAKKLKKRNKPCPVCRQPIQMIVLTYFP

IC50 (MDA-MB231 cell lines) | Molecule | cell viability (MTT) compared to vehicle and untreated groups [1] | binding affinity to MDM2 protein relative to a natural p53 peptide (MDM2 protein)
98 µM | O=C(CSCc1ccccc1)NC(CC1CNc2ccccc21)C(=O)O (stereo not drawn) [compound of formula I] | statistically significant difference compared to vehicle and untreated groups | –
– | MI-319 | – | 500 fold
